Patent US6558933B2, “Mutant 1,3-propanediol dehydrogenase” (Genencor International, INC, priority 1999, dated 2003)
Residue numbers refer to the chain shown, from its start. Where two headings read alike, the source gives them in different places.

Experiments:
[1] = target: T1, E. blattae 1,3-propanediol dehydrogenase (PDD), mutant His 105 to Leu, ATCC PTA-92 (Eb_GEBT), SEQ ID NO: 2 (Shimwellia blattae, UniProt Q3ZL59, H105L); assay: Kinetics of mutant 1,3-propanediol dehydrogenase (PDD), partially purified from E. blattae 33429 derivative PTA-92; assay type: biochemical, Escherichia blattae
T1 construct: concentrated on PM30 membrane
T1 sequence (Q3ZL59 1-387 H105L): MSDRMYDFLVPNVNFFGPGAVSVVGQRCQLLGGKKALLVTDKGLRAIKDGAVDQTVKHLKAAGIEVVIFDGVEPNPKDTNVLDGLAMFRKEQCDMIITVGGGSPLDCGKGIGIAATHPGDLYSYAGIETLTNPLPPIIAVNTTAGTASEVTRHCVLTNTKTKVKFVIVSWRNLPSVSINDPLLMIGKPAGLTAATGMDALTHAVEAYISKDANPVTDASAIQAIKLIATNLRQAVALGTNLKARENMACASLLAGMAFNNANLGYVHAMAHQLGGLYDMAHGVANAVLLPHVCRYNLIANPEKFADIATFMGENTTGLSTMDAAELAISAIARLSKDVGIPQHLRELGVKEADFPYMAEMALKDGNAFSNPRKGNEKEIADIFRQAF
Experimental: (§1) Strains—Wild type ATCC 33429, E. blattae comprising the mutant PDD ATCC accession number PTA-92.
(§2) Growth—Cells were grown in a complex medium at 30C 500 ml in a 2800 ml fernbach with shaking at 225 rpm for 20 hr. The medium consists of KH2PO4, 5.4 g/L; (NH4)2SO4, 1.2 g/L; MgSO47H2O, 0.4 g/L; yeast extract, 2.0 g/L; tryptone, 2.0 g/L; and glycerol, 9.2 g/L in tap water. The pH was adjusted to 7.1 with KOH before autoclaving (Honda, et al., 1980, J. Bacteriol, 143:1458-1465).
(§3) Extract prep—Cells were harvested by centrifugation with care to avoid anaerobic conditions. Pellets were resuspended in 100 mM Tricine pH 8.2 containing 50 mM KCl and 1 mM DTT. Cells were disrupted by passage through a French pressure cell. Crude extracts were clarified by centrifugation at 20 K×g for 20 min followed by 100 K×g for 1 hr to yield the high speed supernatant (HSS) fraction.
(§4) Assays—the assay for PDD was performed as described by Johnson, E. A. et al., 1987, J. Bacteriol. 169:2050-2054.
Partial purification of PDD—HSS was separated on a 16×100 Poros 20HQ column. The buffers were A, 60 mM HEPES, pH 7.4 containing 100 uM MnCl and B, A buffer containing 500 mM KCl. The column was loaded and developed at 10 ml/min. The gradient was 10 CV wash. A linear gradient to 70% B in 10 CV, and 1 CV to 100% B. The activity was detected in the very early fractions of the gradient. Pooled column fractions of the 33429 strain were used as collected for assays after the addition of additional DTT to 1 mM. The active fractions from the E. blattae 33429 derivative strain assigned designation PTA-92 were pooled and concentrated on a PM30 membrane and used as concentrated after the addition of additional 1 mM DTT.

[2] = target: T2, E. blattae 1,3-propanediol dehydrogenase (PDD), wild type, strain ATCC 33429 (Eb_429T), SEQ ID NO: 6 (Shimwellia blattae, UniProt Q3ZL59); assay: Kinetics of wild-type 1,3-propanediol dehydrogenase (PDD), partially purified from E. blattae ATCC 33429; assay type: biochemical, Escherichia blattae; settings: wild type strain 33429, pooled column fractions with 1 mM DTT
T2 sequence (Q3ZL59 1-387): T1 sequence (Q3ZL59 1-387 H105L) with L105H
Experimental: as §1, §2, §3, §4
Partial purification of PDD—HSS was separated on a 16×100 Poros 20HQ column. The buffers were A, 60 mM HEPES, pH 7.4 containing 100 uM MnCl and B, A buffer containing 500 mM KCl. The column was loaded and developed at 10 ml/min. The gradient was 10 CV wash. A linear gradient to 70% B in 10 CV, and 1 CV to 100% B. The activity was detected in the very early fractions of the gradient. […]

Row | SMILES | Km for NAD (change in words) ([1]; mutant PDD) | Km ([2]; read-out: Km (NAD)) [mM] | Km for 1,3-propanediol (change in words) ([1]; mutant PDD) | Km of the mutant PDD relative to Km of wild-type PDD for 1,3-propanediol ([1]; mutant PDD vs wild-type PDD) | Km ([2]; read-out: Km (Propanediol)) [mM]
1 | NC(=O)c1ccc[n+]([C@@H]2O[C@H](COP(=O)([O-])OP(=O)(O)OC[C@H]3O[C@@H](n4cnc5c(N)ncnc54)[C@H](O)[C@@H]3O)[C@@H](O)[C@H]2O)c1 [NAD] | altered | 0.057 | – | – | –
2 | OCCCO [1,3-propanediol] | – | – | altered | about 3 times | 28
